Data from patent US20230077362A1 (CORTEVA AGRISCIENCE LLC, priority 2019, published 2023).
Where two headings read alike, the source gives them in different places.

Assays:
[1] = test system: Beet Armyworm (Spodoptera exigua) ("BAW"), second instar larvae; experiment: Bioassay on beet armyworm (BAW), 128-well diet tray assay; assay type: in vivo; conditions: for pest or weed control at 50 µg/cm2: Spodoptera exigua
Method in brief: (§1)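 Second-instar larvae on diet in 128-well trays, covered and held at 25° C, 14:10 light-dark, for five to seven days. Percent mortality scored per well and averaged over eight wells; activity reported as a rating category.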

[2] = test system: Cabbage Looper (Trichoplusia ni) ("CL"), second instar larvae; experiment: Bioassay on cabbage looper (CL), 128-well diet tray assay; assay type: in vivo; conditions: for pest or weed control at 50 µg/cm2: Trichoplusia ni
Method in brief: as §1

[3] = read-out: BAW (Biological Results, rating)
[4] = read-out: CL (Biological Results, rating)

Row | SMILES | pest or weed control at 50 µg/cm2 ([1]; read-out: BAW rating) [%] | pest or weed control at 50 µg/cm2 ([2]; read-out: CL rating) [%] | pest or weed control at 50 µg/cm2 [1, 3] [%] | pest or weed control at 50 µg/cm2 [2, 4] [%] | also measured
1 | Cc1ccc(OCCC(F)(F)F)c(N2C(=O)CS/C2=N\C(=O)Nc2ccc(-c3ncn(-c4ccc(S(=O)(=O)C(F)(F)F)cc4)n3)cc2C)c1 [Compound J373, (Z)-1-(3-(5-Methyl-2-(3,3,3-trifluoropropoxy)phenyl)-4-oxothiazolidin-2-ylidene)-3-(2-methyl-4-(1-(4-((trifluoromethyl)sulfonyl)phenyl)-1H-1,2,4-triazol-3-yl)phenyl)urea] | 50 to 100 | 50 to 100 |  |  | 
2 | Cc1ccc(C(C)C)c(N2C(=O)CS/C2=N\C(=O)Nc2ccc(-c3cn(-c4ccc(C(F)(F)F)cn4)cn3)cc2F)c1 [Compound J482, (Z)-1-(2-Fluoro-4-(1-(5-(trifluoromethyl)pyridin-2-yl)-1H-imidazol-4-yl)phenyl)-3-(3-(2-isopropyl-5-methylphenyl)-4-oxothiazolidin-2-ylidene)urea] | 50 to 100 | 50 to 100 |  |  | 
3 | COC(C)c1ccc(C)cc1N1C(=O)CS/C1=N\C(=O)Nc1ccc(-c2ncn(-c3ccc(SC(F)(F)F)cc3)n2)cc1F (centres unmarked) [Compound J187, (Z)-1-(2-Fluoro-4-(1-(4-((trifluoromethyl)thio)phenyl)-1H-1,2,4-triazol-3-yl)phenyl)-3-(3-(2-(1-methoxyethyl)-5-methylphenyl)-4-oxothiazolidin-2-ylidene)urea] |  |  | 50 to 100 | 50 to 100 | 
4 | COC(C)c1ccc(C)cc1N1C(=O)CS/C1=N\C(=O)Nc1ccc(-n2cnc(-c3ccc(OC(F)(F)F)cc3)n2)cc1F (centres unmarked) [Compound J685, (Z)-1-(2-Fluoro-4-(3-(4-(trifluoromethoxy)phenyl)-1H-1,2,4-triazol-1-yl)phenyl)-3-(3-(2-(1-methoxyethyl)-5-methylphenyl)-4-oxothiazolidin-2-ylidene)urea] | 50 to 100 | 50 to 100 |  |  | 
5 | Cc1ccc(COCC(F)(F)F)c(N2C(=O)CS/C2=N\C(=O)Nc2ccc(-c3ncn(-c4cccc(C(F)(F)F)c4)n3)cc2C)c1 [Compound J727] |  |  |  |  | BAW rating ([1]; Table ABC, species BAW, C = not tested, D = no activity noticed): A (50-100); CL rating ([2]; Table ABC, species CL, C = not tested, D = no activity noticed): A (50-100)
6 | COCc1ccc(N(C)C)cc1N1C(=O)CS/C1=N\C(=O)Nc1ccc(-c2ncn(-c3ccc(S(=O)(=O)C(F)(F)F)cc3)n2)cc1F [Compound J671, (Z)-1-(3-(5-(Dimethylamino)-2-(methoxymethyl)phenyl)-4-oxothiazolidin-2-ylidene)-3-(2-fluoro-4-(1-(4-((trifluoromethyl)sulfonyl)phenyl)-1H-1,2,4-triazol-3-yl)phenyl)urea] | 50 to 100 | 50 to 100 |  |  | 
7 | Cc1ccc(C(C)C)c(N2C(=O)CS/C2=N\C(=O)Nc2ccc(-c3ncn(-c4ccc(C(F)(F)F)cc4)n3)cc2F)c1 [Compound J61, (Z)-1-(2-Fluoro-4-(1-(4-(trifluoromethyl)phenyl)-1H-1,2,4-triazol-3-yl)phenyl)-3-(3-(2-isopropyl-5-methylphenyl)-4-oxothiazolidin-2-ylidene)urea] |  |  | 50 to 100 | 50 to 100 | 
8 | Cc1ccc(C(C)C)c(N2C(=O)CS/C2=N\C(=O)Nc2c(C)cc(-c3ncn(-c4ccc(OC(F)(F)F)cc4)n3)cc2C)c1 [Compound J95, (Z)-1-(2,6-Dimethyl-4-(1-(4-(trifluoromethoxy)phenyl)-1H-1,2,4-triazol-3-yl)phenyl)-3-(3-(2-isopropyl-5-methylphenyl)-4-oxothiazolidin-2-ylidene)urea] |  |  | 50 to 100 | 50 to 100 | 
9 | CC(C)c1ccc(N(C)C)cc1N1C(=O)CS/C1=N\C(=O)Nc1ccc(-c2ncn(-c3ccc(SC(F)(F)F)cc3)n2)cc1F [Compound J334, (Z)-1-(3-(5-(Dimethylamino)-2-isopropylphenyl)-4-oxothiazolidin-2-ylidene)-3-(2-fluoro-4-(1-(4-((trifluoromethyl)thio)phenyl)-1H-1,2,4-triazol-3-yl)phenyl)urea] |  |  | 50 to 100 | 50 to 100 | 
10 | COc1ccc(C(C)C)c(N2C(=O)CS/C2=N\C(=O)Nc2ccc(-c3ncn(-c4ccc(OC(F)(F)F)cc4)n3)cc2Cl)c1 [Compound J37, (Z)-1-(2-Chloro-4-(1-(4-(trifluoromethoxy)phenyl)-1H-1,2,4-triazol-3-yl)phenyl)-3-(3-(2-isopropyl-5-methoxyphenyl)-4-oxothiazolidin-2-ylidene)urea] |  |  | 50 to 100 | 50 to 100 | 
11 | COc1ccc(C(C)C)c(N2C(=O)CS/C2=N\C(=O)Nc2ccc(-c3ncn(-c4ccc(OC(F)(F)C(F)(F)F)cc4)n3)cc2OC)c1 [Compound J29, (Z)-1-(3-(2-Isopropyl-5-methoxyphenyl)-4-oxothiazolidin-2-ylidene)-3-(2-methoxy-4-(1-(4-(perfluoroethoxy)phenyl)-1H-1,2,4-triazol-3-yl)phenyl)urea] |  |  | 50 to 100 | 50 to 100 | 
12 | CC(C)c1ccc(N(C)C)cc1N1C(=O)CS/C1=N\C(=O)Nc1ccc(-c2cn(-c3ccc(C(F)(F)F)cc3)cn2)cc1 [Compound J515, (Z)-1-(3-(5-(Dimethylamino)-2-isopropylphenyl)-4-oxothiazolidin-2-ylidene)-3-(4-(1-(4-(trifluoromethyl)phenyl)-1H-imidazol-4-yl)phenyl)urea] | 50 to 100 | 50 to 100 |  |  | 
13 | Cc1ccc(COCc2c(F)c(F)c(F)c(F)c2F)c(N2C(=O)CS/C2=N\C(=O)Nc2ccc(-c3ncn(-c4ccc(OC(F)(F)F)cc4)n3)cc2F)c1 [Compound J622, (Z)-1-(2-Fluoro-4-(1-(4-(trifluoromethoxy)phenyl)-1H-1,2,4-triazol-3-yl)phenyl)-3-(3-(5-methyl-2-(((perfluorophenyl)methoxy)methyl)phenyl)-4-oxothiazolidin-2-ylidene)urea] | 50 to 100 | 50 to 100 |  |  | 
14 | Cc1ccc(COCC(F)(F)F)c(N2C(=O)CS/C2=N\C(=O)Nc2ccc(-c3ncn(-c4ccc(C(F)(F)F)cn4)n3)cc2C)c1 [Compound J297, (Z)-1-(3-(5-Methyl-2-((2,2,2-trifluoroethoxy)methyl)phenyl)-4-oxothiazolidin-2-ylidene)-3-(2-methyl-4-(1-(5-(trifluoromethyl)pyridin-2-yl)-1H-1,2,4-triazol-3-yl)phenyl)urea] |  |  | 50 to 100 | 50 to 100 | 
15 | Cc1ccc(C(C)C)c(N2C(=O)CS/C2=N\C(=O)Nc2ccc(-c3ncn(-c4ccc(OC(F)(F)F)cc4)n3)cc2C(F)F)c1 [Compound J211, (Z)-1-(2-(Difluoromethyl)-4-(1-(4-(trifluoromethoxy)phenyl)-1H-1,2,4-triazol-3-yl)phenyl)-3-(3-(2-isopropyl-5-methylphenyl)-4-oxothiazolidin-2-ylidene)urea] |  |  | 50 to 100 | 50 to 100 | 
16 | COc1ccc(C(C)C)c(N2C(=O)CS/C2=N\C(=O)Nc2c(C)cc(-c3ncn(-c4ccc(OC(F)(F)F)cc4)n3)cc2C)c1 [Compound J98, (Z)-1-(2,6-Dimethyl-4-(1-(4-(trifluoromethoxy)phenyl)-1H-1,2,4-triazol-3-yl)phenyl)-3-(3-(2-isopropyl-5-methoxyphenyl)-4-oxothiazolidin-2-ylidene)urea] |  |  | 50 to 100 | 50 to 100 | 
